Results from publication PMC12530850, “Synthesis, antidiabetic evaluation, and computational modeling of 3-acetyl-8-ethoxy coumarin derived hydrazones and thiosemicarbazones” (RSC Advances, 2025).
“And” between values parts separate entries of the source, which are not always exact repeats. Equal values may be shown once.

Assays:
[1] = target: α-amylase; experiment: α-amylase inhibition assay (starch substrate); assay type: biochemical; conditions: pH 6.9, 35 °C
Experimental: A 0.4 M starch combination was made in 80 mL of NaOH solution and heated to 80 °C for 30 minutes in order to create the starch. After that, 10 μL of various chemical concentrations were combined with 35 μL of starch solution and 35 μL of phosphate buffer (pH 6.9), and the mixture was incubated for 25 minutes at 35 °C. Finally, the final combination was reincubated for 25 minutes after 20 μL of the α-amylase solution was added. Each tube was filled with 50 μL of HCl (0.1 M) to complete the reactions. At 580 nm, the absorbance was measured. The amount of αamylase needed to release one μmol of reducing sugar, which is estimated to be glucose per minute at pH 6.9 and 40 °C, is known as one α-amylase unit.[52,53]

[2] = Antioxidant assay (metal chelating, Fe^2+ binding at 522 nm); conditions: Fe^2+ chelating
Experimental: Fe^2+ chelating ability of novel compounds was predicted according to Dinis et al.[54] with slight modification. Fe^2+-binding capacity of novel compounds was spectrophotometrically recorded at 522 nm. This study was conducted based on previous papers.[55,56]
In this section, we studied the metal chelating method, one of the antioxidant methods for toxicity. To stop the metal ions from serving as catalysts of lipid oxidation, metal-chelating antioxidants are thus added to food products. […] In this study, EDTA was used as a standard.

Row | SMILES | IC50 [1] | Metal chelating (IC50) [2] [µg/mL]
1 | CCOc1cccc2cc(/C(C)=N/NC(=O)c3cnccn3)c(=O)oc12 [Compound 3e, (E)-N′-[1-(8-Ethoxy-2-oxo-2H-chromen-3-yl)ethylidene]pyrazine-2-carbohydrazide] | 479 ± 8.7 nM | >100
2 | COc1cccc2cc(/C(C)=N/NC(=S)NCC(C)C)c(=O)oc12 [Compound 5d, (E)-N-Isobutyl-2-[1-(8-methoxy-2-oxo-2H-chromen-3-yl)ethylidene]hydrazine-1-carbothioamide] | 237 ± 3.43 nM | 50.38 ± 0.04
3 | COc1cccc2cc(/C(C)=N/NC(=S)Nc3ccc(C)cc3C)c(=O)oc12 [Compound 5b, (E)-N-(2,4-Dimethylphenyl)-2-[1-(8-methoxy-2-oxo-2H-chromen-3-yl)ethylidene] hydrazine-1-carbothioamide] | 198 ± 6.04 nM | 58.06 ± 0.08
4 | CCOc1cccc2cc(/C(C)=N/NC(=O)c3c[nH]c4ccccc34)c(=O)oc12 [Compound 3f, (E)-N′-[1-(8-Ethoxy-2-oxo-2H-chromen-3-yl)ethylidene]-1H-indole-3-carbohydrazide] | 425 ± 11.1 nM | >100
5 | O=C(O)CN(CCN(CC(=O)O)CC(=O)O)CC(=O)O [EDTA, Ethylenediaminetetraacetic acid, reference compound] |  | 66.82 ± 0.40
6 | CCOc1cccc2cc(/C(C)=N/NC(=O)c3cccs3)c(=O)oc12 [Compound 3a, (E)-N′-[1-(8-Ethoxy-2-oxo-2H-chromen-3-yl)ethylidene]thiophene-2-carbohydrazide] | 430 ± 7.6 nM | >100
7 | CCOc1cccc2cc(/C(C)=N/NC(=O)c3ccccc3OC)c(=O)oc12 [Compound 3d, (E)-N′-[1-(8-Ethoxy-2-oxo-2H-chromen-3-yl)ethylidene]-2-methoxybenzohydrazide] | 177 ± 8.25 nM | >100
8 | COc1cccc2cc(/C(C)=N/NC(=S)NCc3ccc(C)cc3)c(=O)oc12 [Compound 5c, (E)-2-[1-(8-Methoxy-2-oxo-2H-chromen-3-yl)ethylidene]-N-(4-methylbenzyl) hydrazine-1-carbothioamide] | 128 ± 2.82 nM | 43.55 ± 0.10
9 | CCOc1cccc2cc(/C(C)=N/NC(=O)c3ccc(F)cc3)c(=O)oc12 [Compound 3b, (E)-N′-[1-(8-Ethoxy-2-oxo-2H-chromen-3-yl)ethylidene]-4-fluorobenzohydrazide] | 252 nM and 159 nM | >100
10 | CCOc1cccc2cc(/C(C)=N/NC(=O)c3ccc(Br)cc3)c(=O)oc12 [Compound 3c, (E)-4-Bromo-N′-[1-(8-ethoxy-2-oxo-2H-chromen-3-yl)ethylidene]benzohydrazide] | 209 ± 12.4 nM | >100
11 | COc1cccc2cc(/C(C)=N/NC(N)=S)c(=O)oc12 [Compound 5e, (E)-2-[1-(8-Methoxy-2-oxo-2H-chromen-3-yl)ethylidene]hydrazine-1-carbothioamide] | 146 ± 7.35 nM | 35.96 ± 0.52
12 | CCOc1cccc2cc(/C(C)=N/NC(=O)c3ccco3)c(=O)oc12 [Compound 3g, (E)-N′-[1-(8-Ethoxy-2-oxo-2H-chromen-3-yl)ethylidene]furan-2-carbohydrazide] | 189 ± 9.65 nM | >100
13 | COc1cccc2cc(/C(C)=N/NC(=S)NCc3ccccc3)c(=O)oc12 [Compound 5a, (E)-N-Benzyl-2-[1-(8-methoxy-2-oxo-2H-chromen-3-yl)ethylidene]hydrazine-1-carbothioamide] | 264.5 ± 2.64 nM | >100
